Measurements taken from paper PMC7533260, “Design and tests of prospective property predictions for novel antimalarial 2-aminopropylaminoquinolones” (Journal of Computer-Aided Molecular Design, 2020).
Like-named read-outs stand apart in the source and are kept apart here.

Target: T1, s-PfDHODH (Plasmodium falciparum, UniProt Q08210)
T1 sequence (Q08210 158-569 limits assumed): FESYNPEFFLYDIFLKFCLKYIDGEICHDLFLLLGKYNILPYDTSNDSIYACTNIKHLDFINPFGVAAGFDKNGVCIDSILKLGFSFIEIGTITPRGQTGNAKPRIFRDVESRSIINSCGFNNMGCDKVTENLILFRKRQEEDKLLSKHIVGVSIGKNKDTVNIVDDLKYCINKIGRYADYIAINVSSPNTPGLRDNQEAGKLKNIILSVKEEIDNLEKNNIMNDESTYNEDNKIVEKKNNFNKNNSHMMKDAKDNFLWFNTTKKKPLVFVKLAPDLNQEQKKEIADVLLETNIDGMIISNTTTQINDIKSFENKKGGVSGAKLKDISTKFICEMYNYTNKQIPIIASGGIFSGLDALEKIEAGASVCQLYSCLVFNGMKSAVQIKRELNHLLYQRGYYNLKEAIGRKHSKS
Test: Literature inhibition data for soluble recombinant PfDHODH (s-PfDHODH), dodecylubiquinone as substrate
Format: biochemical
Excerpt: Data on PfDHODH inhibition were collected from the literature for a structurally diverse group of compounds. These included triazolopyrimidines, diphenylureas, and 2-cyano-3-hydroxy acrylanilides, among others. Quantitative data were not available for inhibition of the intact enzyme, which is bound to the mitochondrial membrane by its hydrophobic N-terminus in vivo [16]. […] The very low solubility of CoQ-10 limits its utility in vitro, so an artificial ubiquinone (dodecylubiquinone [DQ]) is usually used as substrate instead.
The IC50 data for these 89 compounds were converted to inhibition constants (Ki’s) by assuming competitive inhibition against DQ and applying the method described by Cheng and Prusoff. Two artificial neural network ensemble (ANNE) regression models were constructed (henceforth referred to as Model A and Model B) using ADMET Modeler™ module of ADMET Predictor® [18]. The models were built on distinct 20% hold-out test sets (see Supplementary Methods for details).

[1] = converted from literature IC50 assuming competitive inhibition against DQ (Cheng and Prusoff), read-out: PfDHODH Ki

Cc1cc(Nc2ccc(OC(F)(F)F)cc2)n2ncnc2n1 [Compound G23]
Ki [1]: 480 nM

Cc1ccc(Nc2cc(C)nc3ncnn23)c(F)c1 [Compound G36]
Ki [1]: 10800 nM

Cc1c(C(=O)Nc2ccc(Cl)c(Cl)c2)cccc1[N+](=O)[O-] [Compound B09]
Ki: 40 nM

Cc1ccccc1/C=C/c1cc(O)c2ccccc2n1 [Compound P01]
Ki [1]: 400 nM

COc1ccc(Nc2cc(C)nc3ncnn23)cc1 [Compound G22]
Ki [1]: 1840 nM

O=C(Nc1ccc(Cl)cc1Cl)c1ccc2ccccc2c1 [Compound B01]
Ki: 30 nM

CCCCCC1CCCc2c1nc1ccccc1c2O (stereo not shown) [Compound P02]
Ki [1]: 150 nM

O=C(Nc1ccc(Cl)cc1)Nc1cccc2cccnc12 [Compound B13]
Ki: 540 nM

Cc1c(C(=O)Nc2cc(Cl)cc(Cl)c2)cccc1[N+](=O)[O-] [Compound B06]
Ki [1]: 10 nM

Cc1c(C(=O)Nc2ccc(F)c(Cl)c2)cccc1[N+](=O)[O-] [Compound B05]
Ki: 40 nM

Cc1c(C(=O)Nc2cccc(Br)c2)cccc1[N+](=O)[O-] [Compound B04]
Ki: 20 nM

CCOC(=O)C(=CNc1ccccc1C)C(=O)OCC [He09]
Ki: 39700 nM

CCOC(=O)C(=CNc1cccc(-c2ccccc2)c1)C(=O)OCC [He14]
Ki: 10000 nM

Cc1cc(N(C)c2ccc3ccccc3c2)n2ncnc2n1 [Tz11]
Ki [1]: 1200 nM

Cc1c(C(=O)Nc2cccc(C(F)(F)F)c2)cccc1[N+](=O)[O-] [Compound B10]
Ki: 40 nM

CCCNC(=O)c1ccc(-n2c(C)cc3ccccc32)s1 [Compound P03]
Ki: 20 nM

CCCNC(=O)c1ccc(-n2ccc3ccccc32)s1 [Compound P06]
Ki: 200 nM

Cc1cc(Nc2ccc(-c3ccccc3)cc2)n2ncnc2n1 [Compound G26]
Ki [1]: 2120 nM

Cc1cc(Nc2ccc(Br)c(C(F)(F)F)c2)n2ncnc2n1 [Compound G42]
Ki [1]: 180 nM

Cc1cccc(Nc2cc(C)nc3ncnn23)c1 [Compound G15]
Ki [1]: 1960 nM

Cc1cc(Nc2ccc(F)cc2)n2ncnc2n1 [Compound G17]
Ki [1]: 7600 nM

Cc1nc2ncnn2c(Nc2ccc3ccccc3c2)c1C [Tz10]
Ki [1]: 60 nM

CCCNC(=O)c1ccc(-n2c(C)nc3ccccc32)s1 [Compound P11]
Ki [1]: 70 nM

CCOC(=O)C(=CNc1ccc(C)cc1)C(=O)OCC [He08]
Ki: 4600 nM

Cc1cc(Nc2ccc(Br)cc2)n2ncnc2n1 [Compound G19]
Ki [1]: 310 nM

Cc1cc(Nc2cc(F)c(F)cc2F)n2ncnc2n1 [Compound G32]
Ki [1]: 6800 nM

CCCNC(=O)c1ccc(-n2cnc3ccccc32)s1 [Compound P10]
Ki [1]: 300 nM

Cc1cc(Nc2ccc(C)c(C(F)(F)F)c2)n2ncnc2n1 [Compound G43]
Ki [1]: 620 nM

Cc1cc(Nc2cccc3ccccc23)n2ncnc2n1 [Tz18]
Ki [1]: 18000 nM

Cc1cc(Nc2cc(F)cc(F)c2)n2ncnc2n1 [Compound G38]
Ki [1]: 3760 nM

Cc1cc(Nc2cnc3ccccc3c2)n2ncnc2n1 [Tz14]
Ki [1]: 680 nM

Cc1cc(Nc2ccc3c(=O)cc(C)oc3c2)n2ncnc2n1 [Tz17]
Ki [1]: 800 nM

Cc1cc(Nc2ccc(OC(F)F)cc2)n2ncnc2n1 [Compound G24]
Ki [1]: 1120 nM

Cc1cc(Nc2ccc(Cc3ccccc3)cc2)n2ncnc2n1 [Compound G27]
Ki [1]: 880 nM

Cc1cc(Nc2ccc(C(N)=O)cc2)n2ncnc2n1 [Tz13]
Ki: 80000 nM

Cc1cc(Nc2ccc([N+](=O)[O-])cc2)n2ncnc2n1 [Compound G25]
Ki [1]: 1720 nM

Cc1cc(Nc2cccc(Cl)c2)n2ncnc2n1 [Compound G14]
Ki [1]: 560 nM

Cc1cc(Nc2ccccc2)n2ncnc2n1 [Tz19]
Ki: 40000 nM

O=C(NC1CC1)c1ccc(N2CCSc3ccccc32)s1 [Compound P04]
Ki [1]: 110 nM

Cc1cc(Nc2ccc(C#N)c(C(F)(F)F)c2)n2ncnc2n1 [Compound G45]
Ki: 1960 nM

O=C(Nc1ccccc1C(F)(F)F)Nc1cccc2ccccc12 [Compound B11]
Ki: 180 nM

Cc1c(C(=O)Nc2cccc3ccccc23)cccc1[N+](=O)[O-] [Compound B08]
Ki: 30 nM

FC(F)(F)c1cc(Nc2ccc3ccccc3c2)n2ncnc2n1 [Tz08]
Ki [1]: 80 nM
